This is an account of results in PubChem BioAssay (NCI).

Several values for one entry are separate records, joined by “and”; a condition that tells them apart may be missing. Equal values may be shown once.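 Compound exposure: 48 hours, 5 concentrations, 96-well plates. GI50 marks 50% less growth. At the TGI there is no net growth.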

One experiment relates to CAKI-1 renal. The experiment is described as follows: NCI anticancer screen, dose series, 48 h.
For `C#Cc1cnc(=O)n(C2CC(O)C(CO)O2)c1` (stereo not given), the GI50 was more than 62.2 µM and the TGI is more than 100 µM.

Consider `COc1c(C2CC(=O)Nc3c2cnn3Cc2ccco2)cc2c(c1OC)OCO2` (stereo not given), for which the GI50 is 0.517 µM and the TGI was more than 100 µM.

As for `CC(CO)(CO)N=Cc1cc(I)cc(I)c1O`, the TGI stood at 68.2 µM.

As for `CC1(C)N=C(N)N=C(N)N1c1ccc(CCCCc2ccc(S(=O)(=O)F)cc2)cc1`, the GI50 was 3.7 µM and the TGI was more than 100 µM.

Consider `NC(N)=N/N=C(/c1ccccc1)c1ccc(F)cc1`, for which the GI50 was 0.404 µM and the TGI was 16.1 µM.

As to `COc1cc(C(=O)NC2c3ccccc3-c3ccccc32)c(N)cc1OCc1ccccc1`, the GI50 is 16.1 µM and the TGI was found to be 63.8 µM.

On to `Oc1ccccc1/C=N/Nc1ccc2ccccc2n1`, for which the GI50 was 2.98 µM and the TGI is more than 100 µM.

As to `COc1ccc(C(=S)N2CCN(c3cccc(Cl)c3)CC2)cc1`, the GI50 was more than 100 µM and the TGI was more than 100 µM.

In the case of `COc1ccc(/C=C/C=C(/C#N)C(N)=S)cc1`, the GI50 is 29.6 µM and the TGI was more than 100 µM.

With `Clc1ccccc1C(c1ccccc1)(c1ccccc1)n1ccnc1`, the GI50 was 2.34 µM; the TGI was 15.3 µM and 50.5 µM.

Turning to `COc1ccc(-c2cc(-c3cc(Cl)ccc3Cl)nc3[nH]c(-c4cc(F)c(Cl)cc4Cl)cc(=O)c23)cc1`, the GI50 is 34.1 µM and the TGI is more than 100 µM.

The test system of a further experiment is HCT-15 colon. The experiment is described as follows: NCI anticancer screen, dose series, 48 h.
With `C#Cc1cnc(=O)n(C2CC(O)C(CO)O2)c1` (stereo not given), the GI50 is more than 100 µM and the TGI is more than 100 µM.

`COc1c(C2CC(=O)Nc3c2cnn3Cc2ccco2)cc2c(c1OC)OCO2` (stereo not given): the GI50 was 0.431 µM and the TGI is more than 100 µM.

For the compound `CC(CO)(CO)N=Cc1cc(I)cc(I)c1O`, the TGI came to 34.8 µM.

As for `CC1(C)N=C(N)N=C(N)N1c1ccc(CCCCc2ccc(S(=O)(=O)F)cc2)cc1`, the GI50 is 3.16 µM and the TGI is more than 100 µM.

As for `NC(N)=N/N=C(/c1ccccc1)c1ccc(F)cc1`, the GI50 is 0.4 µM and the TGI turned out to be 13.4 µM.

Consider `COc1cc(C(=O)NC2c3ccccc3-c3ccccc32)c(N)cc1OCc1ccccc1`, for which the GI50 is more than 74.8 µM and the TGI is more than 100 µM.

`Oc1ccccc1/C=N/Nc1ccc2ccccc2n1`: the GI50 was 0.838 µM and the TGI was more than 100 µM.

Turning to `COc1ccc(C(=S)N2CCN(c3cccc(Cl)c3)CC2)cc1`, the GI50 was more than 100 µM and the TGI is more than 100 µM.

Regarding `COc1ccc(/C=C/C=C(/C#N)C(N)=S)cc1`, the GI50 is 25.4 µM and the TGI worked out at 82.8 µM.

Take `Clc1ccccc1C(c1ccccc1)(c1ccccc1)n1ccnc1`: the GI50 is 2.58 µM; the TGI is 12.5 µM and 22.7 µM.

Consider `COc1ccc(-c2cc(-c3cc(Cl)ccc3Cl)nc3[nH]c(-c4cc(F)c(Cl)cc4Cl)cc(=O)c23)cc1`, for which the GI50 is 17.1 µM and the TGI turned out to be 56.1 µM.

In a further experiment the test system is U251 CNS. The experiment is described as follows: NCI anticancer screen, dose series, 48 h.
On to `C#Cc1cnc(=O)n(C2CC(O)C(CO)O2)c1` (stereo not given), for which the GI50 was more than 100 µM and the TGI was more than 100 µM.

As to `COc1c(C2CC(=O)Nc3c2cnn3Cc2ccco2)cc2c(c1OC)OCO2` (stereo not given), the GI50 is 0.499 µM and the TGI is more than 25.8 µM.

`CC(CO)(CO)N=Cc1cc(I)cc(I)c1O` returned a TGI of 28.3 µM.

Regarding `CC1(C)N=C(N)N=C(N)N1c1ccc(CCCCc2ccc(S(=O)(=O)F)cc2)cc1`, the GI50 is 0.467 µM and the TGI worked out at 15 µM.

With `NC(N)=N/N=C(/c1ccccc1)c1ccc(F)cc1`, the GI50 was 0.337 µM and the TGI is 5.21 µM.

For `COc1cc(C(=O)NC2c3ccccc3-c3ccccc32)c(N)cc1OCc1ccccc1`, the GI50 was 14.4 µM and the TGI stood at 34.7 µM.

Take `Oc1ccccc1/C=N/Nc1ccc2ccccc2n1`: the GI50 was 4.23 µM and the TGI amounted to 31.5 µM.

`COc1ccc(C(=S)N2CCN(c3cccc(Cl)c3)CC2)cc1`: the GI50 is more than 100 µM and the TGI was more than 100 µM.

As to `COc1ccc(/C=C/C=C(/C#N)C(N)=S)cc1`, the GI50 is 28.5 µM and the TGI was more than 100 µM.

Regarding `Clc1ccccc1C(c1ccccc1)(c1ccccc1)n1ccnc1`, the GI50 is 2.48 µM; the TGI is 11.8 µM and 49.8 µM.

Turning to `COc1ccc(-c2cc(-c3cc(Cl)ccc3Cl)nc3[nH]c(-c4cc(F)c(Cl)cc4Cl)cc(=O)c23)cc1`, the GI50 was 21.8 µM and the TGI was found to be 61.6 µM.

For the next experiment, the system named is DU-145 prostate. The experiment is described as follows: NCI anticancer screen, dose series, 48 h.
With `C#Cc1cnc(=O)n(C2CC(O)C(CO)O2)c1` (stereo not given), the GI50 is more than 100 µM and the TGI was more than 100 µM.

Regarding `COc1c(C2CC(=O)Nc3c2cnn3Cc2ccco2)cc2c(c1OC)OCO2` (stereo not given), the GI50 was 0.522 µM and the TGI is 24.6 µM.

Regarding `CC(CO)(CO)N=Cc1cc(I)cc(I)c1O`, the TGI is 29.8 µM.

Consider `CC1(C)N=C(N)N=C(N)N1c1ccc(CCCCc2ccc(S(=O)(=O)F)cc2)cc1`, for which the GI50 is 0.833 µM and the TGI amounted to 28.2 µM.

For the compound `NC(N)=N/N=C(/c1ccccc1)c1ccc(F)cc1`, the GI50 was 0.33 µM and the TGI came to 4.15 µM.

On to `COc1cc(C(=O)NC2c3ccccc3-c3ccccc32)c(N)cc1OCc1ccccc1`, for which the GI50 is 2.87 µM and the TGI is more than 100 µM.

In the case of `Oc1ccccc1/C=N/Nc1ccc2ccccc2n1`, the GI50 was 6.53 µM and the TGI is more than 100 µM.

For `COc1ccc(C(=S)N2CCN(c3cccc(Cl)c3)CC2)cc1`, the GI50 was more than 100 µM and the TGI was more than 100 µM.

Take `COc1ccc(/C=C/C=C(/C#N)C(N)=S)cc1`: the GI50 was 32.7 µM and the TGI was more than 100 µM.

Take `Clc1ccccc1C(c1ccccc1)(c1ccccc1)n1ccnc1`: the GI50 was 4.87 µM; the TGI was 17.2 µM and 39.6 µM.

For the compound `COc1ccc(-c2cc(-c3cc(Cl)ccc3Cl)nc3[nH]c(-c4cc(F)c(Cl)cc4Cl)cc(=O)c23)cc1`, the GI50 is 31.3 µM and the TGI was more than 100 µM.

Another experiment relates to COLO 205 colon. The experiment is described as follows: NCI anticancer screen, dose series, 48 h.
For the compound `C#Cc1cnc(=O)n(C2CC(O)C(CO)O2)c1` (stereo not given), the GI50 was more than 100 µM and the TGI is more than 100 µM.

With `COc1c(C2CC(=O)Nc3c2cnn3Cc2ccco2)cc2c(c1OC)OCO2` (stereo not given), the GI50 is 0.332 µM and the TGI came to 2.86 µM.

The compound `CC(CO)(CO)N=Cc1cc(I)cc(I)c1O` displayed a TGI of 35.3 µM.

Regarding `CC1(C)N=C(N)N=C(N)N1c1ccc(CCCCc2ccc(S(=O)(=O)F)cc2)cc1`, the GI50 is 2.28 µM and the TGI was found to be 19.8 µM.

In the case of `NC(N)=N/N=C(/c1ccccc1)c1ccc(F)cc1`, the GI50 is 0.267 µM and the TGI was found to be 0.841 µM.

`COc1cc(C(=O)NC2c3ccccc3-c3ccccc32)c(N)cc1OCc1ccccc1`: the GI50 was 63.9 µM and the TGI was more than 100 µM.

Regarding `Oc1ccccc1/C=N/Nc1ccc2ccccc2n1`, the GI50 was 3.66 µM and the TGI was more than 100 µM.

In the case of `COc1ccc(C(=S)N2CCN(c3cccc(Cl)c3)CC2)cc1`, the GI50 is more than 100 µM and the TGI was more than 100 µM.

With `COc1ccc(/C=C/C=C(/C#N)C(N)=S)cc1`, the GI50 is 20.9 µM and the TGI was found to be 50.7 µM.

`Clc1ccccc1C(c1ccccc1)(c1ccccc1)n1ccnc1`: the GI50 is 1.76 µM; the TGI was 3.28 µM and 29 µM.

For `COc1ccc(-c2cc(-c3cc(Cl)ccc3Cl)nc3[nH]c(-c4cc(F)c(Cl)cc4Cl)cc(=O)c23)cc1`, the GI50 was 43.6 µM and the TGI is more than 100 µM.
